How the values were obtained:
HIF-1 [1] = experiment: Assay of IC50, Hep3B cells (HRE-luciferase transfected); type: cell-based; settings: Homo sapiens
Description: (§1) Six tandem repeats of HRE (hypoxia Responsive Element 5′-ACGTG-3′), which is present in a human VEGF gene, was inserted into the multi-cloning region of a pGL3-basic vector (Promega) containing a luciferase gene as a reporter gene to produce a recombinant pGL3-HRE-luciferase vector which was then used to assay the compounds prepared in the above Examples for inhibition activity against HIF-mediated transcriptional activity.

HIF-1 [2] = experiment: Assay of IC50, AGS cells (HRE-luciferase transfected); type: cell-based; settings: Homo sapiens
Description: as §1

HIF-1 [3] = experiment: HRE reporter assay, HIF activity % remaining, AGS cells; type: cell-based, human; settings: summary in words of the data of Table 1 and Table 2; cell line not stated
Description: as §1
The hepatocellular carcinoma cell line HepG2 or Hep3B, both available from ATCC (American Type Culture Collection), and the gastric carcinoma cell line AGS, available from ATCC, were grown at 70% confluency in culture dishes and co-transfected with an internal control vector (pRL-CMV, Promega) and the recombinant pGL3-HRE-luciferase vector using Lipofectamine Plus Reagent (Invitrogen). HepG2 and AGS cells were treated with the compound of Chemical Formula 1A while Hep3B and AGS cells were treated with the compound of Chemical Formula 1B. The compound of Chemical Formula 1A was used in a concentration of 10 μm for HepG2 or AGS cells. The compound of Chemical Formula 1B was used in a concentration of 30 μM for Hep3B and in a concentration of 10 μM for AGS cells. […] The compounds prepared in Examples above were assayed for inhibition activity against HIF-1 by measuring the activity of the luciferase, induced in hypoxia, using a Dual-luciferase reporter assay system (Promoga). In this regard, the luciferase activity was measured for 10 sec using a Microlumat Plus luminometer (EG&G Berthold). In the meanwhile, the renilla luciferase activity from the control vector PRL-CMV (Promega) was measured to normalize the data obtained.
On the basis of the renilla luciferase activity, the HIF activity % remaining after treatment with the compounds was corrected.

HIF-1 [4] = experiment: Assay of IC50, SK-Hep-1 cells (same manner); type: cell-based; settings: Homo sapiens, SK-HEP1; SK-Hep-1 cell line, compounds 0.01 to 100 μM for 16 hrs
Description: as §1

[5] = test system: metastatic breast carcinoma cell line MDA-MB-435; experiment: In vivo anticancer activity in nude mice implanted with MDA-MB-435; settings: for inhibition of the growth of the cancer cells compared to the control: once a day, MDA-MB-435 in nude mice
Description: Female nude mice 5-6 weeks old (Crj:BALB/c nu/nu, Charles River) were bred in germ-free breeding rooms maintained at constant temperature and humidity. The nude mice were anesthetized before incision of the chest skin. The metastatic breast carcinoma cell line MDA-MB-435, obtained from DR D. R. Welch, Univ. Alabama, was implanted at a count of 10^6 cells/mouse into the mammary gland fat pad, and the incisions were then closed with surgical clips. The nude mice were divided into test groups and a control group, each consisting of 6 mice. […] For the control group, Solution A alone was used at a dose of 100 μl once a day. Thereafter, tumor volumes and body weights were measured once a week. Tumor volumes were calculated according to the following Mathematic Formula 1. Tumor Volume (mm^3)=(Length of Long Axis,mm)×(Length of Short Axis,mm)^2×0.5 <Mathematic Formula 1>

Row | IC50 (HIF-1 [1]) [µM] | IC50 (HIF-1 [2]) [µM] | IC50 (HIF-1 [4]) [µM] | Structure (SMILES) | other results
1 | 0.4 | 0.35 | – | O=C(COc1ccc(C23CC4CC(CC(C4)C2)C3)cc1)Nc1cc(C(=O)O)ccc1O [Example 48, 3-[2-(4-Adamantan-1-yl-phenoxy)-acetylamino]-4-hydroxy-benzoic acid] | inhibition activity against the transcription mediated by HIF-1, induced in hypoxia (HIF-1 [3]): excellent inhibition activity
2 | 1.03 | – | 2 | O=C(COc1ccc(C23CC4CC(CC(C4)C2)C3)cc1)Nc1cc(C(=O)O)ccn1 [Example 98, 2-[2-(4-adamantan-1-yl-phenoxy)acetylamino]-isonicotinic acid] | –
3 | 12.6 | 5.9 | – | O=C(COc1ccc(C23CC4CC(CC(C4)C2)C3)cc1)Nc1cc(C(=O)NCc2ccco2)ccc1O [Example 67, 3-[2-(4-adamantan-1-yl-phenoxy)-acetylamino]-N-furan-2-ylmethyl-4-hydroxy-benzamide] | –
4 | – | – | 3.4 | O=C(COc1ccc(C23CC4CC(CC(C4)C2)C3)cc1)Nc1cc(C(=O)NCCc2ccncc2)ccn1 [Example 106, 2-[2-(4-adamantan-1-yl-phenoxy)-acetylamino]-N-(2-pyridine-4-yl-ethyl)-isonicotinamide] | –
5 | – | – | 2.5 | O=C(COc1ccc(C23CC4CC(CC(C4)C2)C3)cc1)Nc1cc(C(=O)Nc2ccc(Cl)cc2)ccn1 [Example 104, 2-[2-(4-adamantan-1-yl-phenoxy)-acetylamino]-N-(4-chloro-phenyl)-isonicotinamide] | –
6 | – | – | 1.9 | O=C(COc1ccc(C23CC4CC(CC(C4)C2)C3)cc1)Nc1cncc(C(=O)NCCCn2ccnc2)c1 [Example 103, 5-[2-(4-adamantan-1-yl-phenoxy)-acetylamino]-N-(3-imidazole-1-yl-propyl)nicotinamide] | –
7 | 4.3 | 1 | – | NC(=O)c1cccc(NC(=O)COc2ccc(C34CC5CC(CC(C5)C3)C4)cc2)c1 [Example 23, 3-[2-(4-Adamantan-1-yl-phenoxy)acetyl-amino]-benzamide] | inhibition activity against the transcription mediated by HIF-1, induced in hypoxia (HIF-1 [3]): excellent inhibition activity
8 | 23.2 | > 30 | – | O=C(COc1ccc(Cl)cc1Cl)Nc1cc(C(=O)NCc2ccco2)ccc1O [Example 78, 3-[2-(2,4-dichloro-phenoxy)-acetylamino]-N-fan-2-ylmethyl-4-hydroxy-benzamide] | –
9 | 5.9 | 5 | > 30 | COC(=O)c1cncc(NC(=O)COc2ccc(C34CC5CC(CC(C5)C3)C4)cc2)c1 [Example 87, 5-[2-(4-adamantan-1-yl-phenoxy)acetylamino]-nicotinic acid methyl ester] | –
10 | 9.9 | 7.4 | – | COC(=O)c1cccc(NC(=O)COc2ccc(C34CC5CC(CC(C5)C3)C4)cc2)c1 [Example 2, 3-[2-(4-Adaman-1-yl-phenoxy)-acetylamino]-benzoic acid methyl ester] | –
11 | – | – | < 1 | O=C(COc1ccc(C23CC4CC(CC(C4)C2)C3)cc1)Nc1cc(C(=O)NCCCn2ccnc2)ccn1 [Example 107, 2-[2-(4-adamantan-1-yl-phenoxy)-acetylamino]-N-(3-imidazole-1-yl-propyl)-isonicotinamide] | –
12 | – | – | > 30 | O=C(COc1ccc(C23CC4CC(CC(C4)C2)C3)cc1)Nc1cncc(C(=O)NCCc2ccncc2)c1 [Example 102, 5-[2-(4-adamantan-1-yl-phenoxy)acetylamino]-N-(2-pyridine-4-yl-ethyl)nicotinamide] | –
13 | > 30 | > 30 | – | CC(=O)c1ccc(OCC(=O)Nc2cccc(C(=O)O)c2)cc1 [Example 60, 3-[2-(4-acetyl-phenoxy)-acetylamino]-benzoic acid] | –
14 | > 30 | > 30 | – | NC(=O)c1cccc(NC(=O)COc2ccc([N+](=O)[O-])cc2)c1 [Example 32, 3-[2-(4-nitro-phenoxy)-acetyl-amino)benzamide] | –
15 | – | – | – | O=C(COc1ccc(Cl)cc1Cl)Nc1cc(C(=O)O)ccn1 [Example 95, 2-[2-(2,4-dichloro-phenoxy)-acetylamino]-isonicotinic acid] | inhibition of the growth of the cancer cells compared to the control ([5]; 20 mg/kg): 4.3%; deaths in six mice of each group ([5]; 50 mg/kg): No dead were observed; inhibition of the growth of the cancer cells compared to the control ([5]; 50 mg/kg): 36.5%
16 | > 30 | > 30 | – | CC(C)(C)c1ccc(OCC(=O)Nc2cccc(C(N)=O)c2)cc1 [Example 30, 3-[2-(4-tert-butyl-phenoxy)-acetyl-amino]-benzamide] | –
17 | > 30 | > 30 | – | O=C(COc1ccc(C23CC4CC(CC(C4)C2)C3)cc1)Nc1cc(C(=O)NCCCN2CCOCC2)ccc1O [Example 69] | –

Row | IC50 (HIF-1 [1]) [µM] | IC50 (HIF-1 [2]) [µM] | IC50 (HIF-1 [4]) [µM] | Structure (SMILES) | other results
18 | > 30 | > 30 | – | O=C(COc1ccc(F)cc1)Nc1cccc(C(=O)O)c1 [Example 51, 3-[2-(4-fluoro-phenoxy)acetylamino]-benzoic acid] | –
19 | 14.1 | 2 | – | O=C(COc1ccc(C23CC4CC(CC(C4)C2)C3)cc1)Nc1cccc(C(=O)NCc2ccco2)c1 [Example 73] | –
20 | > 30 | > 30 | – | O=C(COc1ccc(C23CC4CC(CC(C4)C2)C3)cc1)Nc1cccc(C(=O)Nc2ccc3ccccc3c2)c1 [Example 72, 3-[2-(4-adamantan-1-yl-phenoxy)-acetylamino]-N-naphtalene-2-yl-benzamide] | –
21 | 1.2 | 2 | 1.03 | COC(=O)c1ccnc(NC(=O)COc2ccc(C34CC5CC(CC(C5)C3)C4)cc2)c1 [Example 86, 2-[2-(4-adamantan-1-yl-phenoxy)acetylamino]-isonicotinic acid methyl ester] | –
22 | > 30 | > 30 | – | CN(C)C(=O)c1ccc(O)c(NC(=O)COc2ccc(C34CC5CC(CC(C5)C3)C4)cc2)c1 [Example 66, 3-[2-(4-adamantan-1-yl-phenoxy)-acetylamino]-4-hydroxy-N,N-dimethyl-benzamide] | –
23 | > 30 | 10 | – | O=C(COc1ccc(Cl)cc1)Nc1cccc(C(=O)O)c1 [Example 52, 3-[2-(4-chloro-phenoxy)-acetylamino]-benzoic acid] | –
24 | > 30 | > 30 | – | Cc1ccc(OCC(=O)Nc2cccc(C(N)=O)c2)cc1 [Example 31, 3-(2-p-tolyloxy-acetyl-amino)-benzamide] | –
25 | – | – | 11.9 | NC(=O)c1cncc(NC(=O)COc2ccc(C34CC5CC(CC(C5)C3)C4)cc2)c1 [Example 112, 5-[2-(4-adamantan-1-yl-phenoxy)acetylamino]-nicotinamide] | –
26 | 51.7 | 3 | – | CN(C)CCNC(=O)c1ccc(O)c(NC(=O)COc2ccc(C34CC5CC(CC(C5)C3)C4)cc2)c1 [Example 68, 3-[2-(4-adamantan-1-yl-phenoxy)-acetylamino]-N-(2-dimethylamino-ethyl)-4-hydroxy-benzamide] | –
27 | > 30 | 9.5 | – | O=C(COc1ccc(C23CC4CC(CC(C4)C2)C3)cc1)Nc1cccc(C(=O)Nc2ccc(Cl)cc2)c1 [Example 70, 3-[2-(4-adamantan-1-ylphenoxy)-acetylamino]-N-(4-chloro-phenyl)-benzamide] | –
28 | > 30 | 35 | – | O=C(COc1ccc(Cl)cc1Cl)Nc1cccc(C(=O)NCc2ccco2)c1 [Example 77, 3-[2-(2,4-dichloro-phenoxy)-acetylamino]-N-furan-2-ylmethyl-benzamide] | –
29 | – | – | > 30 | O=C(COc1ccc(C23CC4CC(CC(C4)C2)C3)cc1)Nc1cc(C(=O)NCc2ccco2)ccn1 [Example 105, 2-[2-(4-adamantan-1-yl-phenoxy)-acetylamino]-N-furan-2-ylmethyl-isonicotinamide] | –
30 | > 30 | 1.6 | – | O=C(COc1ccc(Br)cc1)Nc1cccc(C(=O)O)c1 [Example 57, 3-[2-(4-bromo-phenoxy)-acetylamino]-benzoic acid] | –
31 | 8.2 | 3.1 | – | O=C(COc1ccc(C23CC4CC(CC(C4)C2)C3)cc1)Nc1cccc(C(=O)NCCc2ccncc2)c1 [Example 74] | –
32 | 7.2 | 3.5 | – | O=C(COc1ccc(I)cc1)Nc1cccc(C(=O)O)c1 [Example 58, 3-[2-(4-iodo-phenoxy)-acetylamino]-benzoic acid] | –
33 | > 30 | 1.5 | – | NC(=O)c1ccc(O)c(NC(=O)COc2ccc(C34CC5CC(CC(C5)C3)C4)cc2)c1 [Example 65, 3-[2-(4-adamantan-1-yl-phenoxy)-acetylamino]-4-hydroxy-benzamide] | –

— patent US8394799B2, “Compounds that inhibit HIF-1 activity, the method for preparation thereof and the pharmaceutical composition containing them as an effective component” (Korea Research Institute of Bioscience and Biotechnology, priority 2006, dated 2013)
